{"source": "patent US20130324533A1", "about": "“METHOD OF DETECTING RESISTANCE TO CANCER THERAPY” (NATIONAL UNIVERSITY OF SINGAPORE, priority 2010, published 2013)", "key": {"[1]": {"system": "K562-BIM^intron+/− and K562-BIM^intron−/− cells", "assay": "Western blot of genome-edited K562 clones (BIMEL, cleaved caspase 3, PARP)", "assay_type": "cell-based, human", "conditions": "polymorphism-containing K562 cells; FIG. 16H", "experimental": "Western blots were probed with antibody to BIMEL, cleaved caspase 3, PAR P, CrkL, and β-actin. […] Detection was performed with HRP-conjugated secondary antibodies that are specific to rabbit (Sigma) or mouse IgG (Santa Cruz). The membrane was visualized using the Western Lightning chemiluminescence reagent (PerkinElmer). […] In a 6-well plate, 1×10^6 cells were seeded into each well at a density of 2×10^5 cells/ml. After incubation with the appropriate drug for 48 hours, the cells were harvested for western analysis (FIG. 16)."}, "[2]": {"system": "HCC2279 cells", "assay": "Western blot of apoptotic signaling in NSCLC cells (PARP, caspase 3 cleavage)", "assay_type": "cell-based, human", "conditions": "0.5 μM gefitinib, […] ABT-737, 24 h, FIG. 25E", "experimental": "FIG. 25E. Western blot showing levels of phospho-EGFR (p-EGFR), PAR P, and caspase 3 cleavage in cells treated for 24 h with 0.5 μM gefitinib, 2.5 μM ABT-737, or both.\nGefitinib and ABT-737 were resuspended in DMSO and kept at −20° C.\nWestern blotting was performed using antibodies against human BIM, CASPASE 3, cleaved CASPASE 3, PARP, phospho-EGFR (Y1068) (all from Cell Signaling Technology), and β-actin (Sigma)."}, "[3]": {"system": "HCC2279 cells", "assay": "Trypan blue viability assay in NSCLC cells", "assay_type": "cell-based, human", "experimental": "FIG. 25F. Cell viability of PC9 and HCC2279 treated for 48 h with 0.5 μM gefitinib, 2.5 μM ABT-737, or both. Cell viability was determined by trypan blue exclusion, and plotted as a percentage of the no-drug control. (mean+/−standard error of the mean, *p=0.00004 with respect to gefitinib- and ABT-737-treated PC9 cells).\nPC9 or HCC2279 cells were seeded in a 24-well plate at 5×10^5 or […] cells per wells in triplicate, and treated with DMSO (no drug), 0.5 μM gefitinib, ABT-737 or combination of gefitinib and ABT-737. Trypan blue staining was performed to assess the number of viable cells 48 hours post treatment."}, "[4]": {"system": "KCL22 cells", "assay": "Growth curve of CML cell lines cultured with imatinib (FIG. 5F)", "conditions": "KCL22 cells with deletion, 1 μM imatinib", "excerpt": "CML lines were obtained from ATCC (MEG-01 and KU812), JCRB (NCO2) and DSMZ (KCL22, K562, KYO1, JK1, BV173 and NALM1)."}, "[5]": {"system": "CML patients", "conditions": "cited from earlier work"}, "[6]": {"system": "KCL22 cells", "conditions": "FIG. 15H and Table H13", "experimental": "Apoptosis was measured using the Annexin V-FITC/7-AAD kit (Beckman Coulter) according to the manufacturer's instructions. Briefly, treated and untreated cells were Annexin V-FITC- and 7-AAD-stained in 1× binding buffer for 15 min at room temperature and then analyzed by flow cytometry."}}, "note": "Read-outs that look alike come from different tables or passages of the source."}
{"molecule": "CN(C)CC[C@H](CSc1ccccc1)Nc1ccc(S(=O)(=O)NC(=O)c2ccc(N3CCN(Cc4ccccc4-c4ccc(Cl)cc4)CC3)cc2)cc1[N+](=O)[O-]", "note": "[ABT-737]", "values": [{"measurement": "ability of imatinib to activate apoptosis on addition of ABT-737", "setting": "[1]", "result": "enhanced"}, {"measurement": "TKI-induced apoptotic signaling on addition of ABT-737", "setting": "[2]", "result": "enhanced"}, {"measurement": "TKI-induced cell death on addition of ABT-737", "setting": "[3]; HCC2279, 0.5 μM gefitinib, […] ABT-737, 48 h, FIG. 25F", "result": "enhanced"}]}
{"molecule": "COc1cc2ncnc(Nc3ccc(F)c(Cl)c3)c2cc1OCCCN1CCOCC1", "note": "[gefitinib]", "values": [{"measurement": "sensitivity of HCC2279 to gefitinib", "setting": "[3]; HCC2279, NSCLC cell line carrying the BIM deletion polymorphism, FIG. 25", "result": "intrinsically resistant"}]}
{"molecule": "Cc1ccc(NC(=O)c2ccc(CN3CCN(C)CC3)cc2)cc1Nc1nccc(-c2cccnc2)n1", "note": "[imatinib]", "values": [{"measurement": "sensitivity of KCL22 cells (growth curve)", "setting": "[4]", "result": "resistant"}, {"measurement": "rate of incomplete cytogenetic responses", "setting": "[5]; East-Asian countries", "result": "~50", "unit": "%"}, {"measurement": "rate of incomplete cytogenetic responses", "setting": "[5]; Europe and North America", "result": 26, "unit": "%"}, {"measurement": "sensitivity of KCL22 cells to imatinib", "setting": "[6]", "result": "resistant"}]}
